From ChEMBL document CHEMBL5113522, “Discovery of CH7057288 as an Orally Bioavailable, Selective, and Potent pan-TRK Inhibitor” (J Med Chem, 2022)

Tests used:
[1] = target: Tyrosine-protein kinase Lck (Homo sapiens, UniProt P06239); assay: Inhibition of LCK (unknown origin)
[2] = target: Vascular endothelial growth factor receptor 2 (Homo sapiens, UniProt P35968); assay: Inhibition of KDR (unknown origin)
[3] = target: CYP3A4 (Homo sapiens, UniProt P08684); assay: Induction of CYP3A4 in human hepatocytes assessed as fold induction at 1 uM using testosterone as substrate preincubated with replacement of fresh medium containing compound every 24 hrs for 72 hrs followed by substrate addition and measured after 1 hr by LC-MS/MS analysis relative to control; format: ADME, cell-based, Hepatocyte; conditions: probe testosterone, time 73 hrs, read-out: FC
Chain of CYP3A4 (P08684 whole entry): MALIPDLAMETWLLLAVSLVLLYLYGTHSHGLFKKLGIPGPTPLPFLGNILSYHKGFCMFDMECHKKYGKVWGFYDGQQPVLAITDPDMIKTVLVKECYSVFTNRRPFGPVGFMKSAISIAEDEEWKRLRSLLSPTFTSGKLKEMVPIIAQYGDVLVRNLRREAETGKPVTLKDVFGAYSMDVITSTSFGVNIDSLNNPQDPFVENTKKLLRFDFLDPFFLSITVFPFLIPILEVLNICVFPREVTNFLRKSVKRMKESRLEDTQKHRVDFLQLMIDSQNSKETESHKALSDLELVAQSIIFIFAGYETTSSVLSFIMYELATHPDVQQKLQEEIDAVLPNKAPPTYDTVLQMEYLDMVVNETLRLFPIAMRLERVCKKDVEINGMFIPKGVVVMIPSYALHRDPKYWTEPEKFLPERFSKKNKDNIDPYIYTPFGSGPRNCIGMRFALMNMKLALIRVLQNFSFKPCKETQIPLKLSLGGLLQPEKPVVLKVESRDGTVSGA

[4] = test system: NIH3T3; assay: Antiproliferative activity against […] NIH3T3 cells expressing MPRIP-NTRK1 assessed as cell growth inhibition incubated for 4 to 7 days by CellTiter-Glo Luminescent Cell Viability Assay; format: functional, cell-based; conditions: Mus musculus
[5] = target: High affinity nerve growth factor receptor (Homo sapiens, UniProt P04629); assay: Inhibition of TRKA (unknown origin)
Chain of High affinity nerve growth factor receptor (P04629 whole entry): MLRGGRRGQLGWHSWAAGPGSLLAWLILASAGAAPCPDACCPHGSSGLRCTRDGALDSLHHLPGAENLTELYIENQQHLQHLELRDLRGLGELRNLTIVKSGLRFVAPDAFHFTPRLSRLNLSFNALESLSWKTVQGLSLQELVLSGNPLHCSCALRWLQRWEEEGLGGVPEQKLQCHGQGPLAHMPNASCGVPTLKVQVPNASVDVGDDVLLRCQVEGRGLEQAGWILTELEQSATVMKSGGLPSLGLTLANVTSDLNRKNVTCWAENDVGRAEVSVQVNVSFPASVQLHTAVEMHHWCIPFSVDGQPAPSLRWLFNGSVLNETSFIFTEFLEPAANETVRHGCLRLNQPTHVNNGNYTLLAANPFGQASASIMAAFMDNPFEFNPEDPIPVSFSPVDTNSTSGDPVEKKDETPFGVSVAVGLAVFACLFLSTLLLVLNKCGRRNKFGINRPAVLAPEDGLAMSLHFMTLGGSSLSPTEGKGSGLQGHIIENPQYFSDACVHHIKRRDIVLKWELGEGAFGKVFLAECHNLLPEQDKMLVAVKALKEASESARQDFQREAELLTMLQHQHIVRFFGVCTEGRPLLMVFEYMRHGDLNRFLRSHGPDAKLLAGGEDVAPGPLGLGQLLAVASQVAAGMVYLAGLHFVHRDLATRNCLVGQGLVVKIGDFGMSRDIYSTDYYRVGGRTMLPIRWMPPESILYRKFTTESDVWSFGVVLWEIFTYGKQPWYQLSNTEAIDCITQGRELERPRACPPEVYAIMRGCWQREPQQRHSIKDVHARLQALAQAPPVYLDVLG

[6] = target: RAC-alpha serine/threonine-protein kinase (Homo sapiens, UniProt P31749); assay: Inhibition of AKT1 (unknown origin)
[7] = target: Tyrosine-protein kinase JAK2 (Homo sapiens, UniProt O60674); assay: Inhibition of JAK2 (unknown origin)
[8] = target: Hepatocyte growth factor receptor (Homo sapiens, UniProt P08581); assay: Inhibition of MET (unknown origin)
[9] = target: Receptor tyrosine-protein kinase erbB-2 (Homo sapiens, UniProt P04626); assay: Inhibition of HER2 (unknown origin)
Chain of Receptor tyrosine-protein kinase erbB-2 (P04626 whole entry): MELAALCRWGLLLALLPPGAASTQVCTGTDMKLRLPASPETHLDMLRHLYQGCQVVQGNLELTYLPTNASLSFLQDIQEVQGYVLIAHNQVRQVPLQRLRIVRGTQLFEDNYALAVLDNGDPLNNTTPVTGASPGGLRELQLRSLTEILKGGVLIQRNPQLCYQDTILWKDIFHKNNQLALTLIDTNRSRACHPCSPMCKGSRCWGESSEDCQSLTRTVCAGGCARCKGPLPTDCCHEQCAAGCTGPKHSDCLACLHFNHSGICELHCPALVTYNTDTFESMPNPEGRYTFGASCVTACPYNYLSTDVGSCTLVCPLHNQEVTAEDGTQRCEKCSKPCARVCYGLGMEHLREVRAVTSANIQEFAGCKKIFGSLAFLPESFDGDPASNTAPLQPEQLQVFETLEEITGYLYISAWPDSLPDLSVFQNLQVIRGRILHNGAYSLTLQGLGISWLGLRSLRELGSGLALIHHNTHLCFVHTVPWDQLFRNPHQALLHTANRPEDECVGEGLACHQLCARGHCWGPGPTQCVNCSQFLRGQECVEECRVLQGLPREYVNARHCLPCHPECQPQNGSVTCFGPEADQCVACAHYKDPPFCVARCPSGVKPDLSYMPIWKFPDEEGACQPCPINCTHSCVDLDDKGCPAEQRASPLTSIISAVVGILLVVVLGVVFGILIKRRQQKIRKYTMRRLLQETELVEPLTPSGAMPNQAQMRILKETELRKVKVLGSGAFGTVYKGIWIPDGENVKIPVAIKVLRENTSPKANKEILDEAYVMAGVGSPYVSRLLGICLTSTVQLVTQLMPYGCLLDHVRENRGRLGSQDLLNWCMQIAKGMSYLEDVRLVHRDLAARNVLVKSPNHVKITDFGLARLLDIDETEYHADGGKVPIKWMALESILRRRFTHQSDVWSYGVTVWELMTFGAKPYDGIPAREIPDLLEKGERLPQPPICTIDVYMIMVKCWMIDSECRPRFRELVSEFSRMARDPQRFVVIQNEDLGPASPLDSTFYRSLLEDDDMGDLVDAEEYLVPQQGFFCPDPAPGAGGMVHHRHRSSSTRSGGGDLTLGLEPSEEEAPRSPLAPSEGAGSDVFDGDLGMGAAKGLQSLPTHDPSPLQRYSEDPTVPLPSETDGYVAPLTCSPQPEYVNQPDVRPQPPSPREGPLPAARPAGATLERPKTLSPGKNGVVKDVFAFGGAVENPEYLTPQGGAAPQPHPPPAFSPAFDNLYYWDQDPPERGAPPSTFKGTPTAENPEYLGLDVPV

[10] = target: Fibroblast growth factor receptor 2 (Homo sapiens, UniProt P21802); assay: Inhibition of FGFR2 (unknown origin)
[11] = target: Proto-oncogene tyrosine-protein kinase Src (Homo sapiens, UniProt P12931); assay: Inhibition of Src (unknown origin)
[12] = target: Insulin receptor (Homo sapiens, UniProt P06213); assay: Inhibition of INSR (unknown origin)
[13] = target: Cyclin-dependent kinase 1 (Homo sapiens, UniProt P06493); assay: Inhibition of CDK1 (unknown origin)
Chain of Cyclin-dependent kinase 1 (P06493 whole entry): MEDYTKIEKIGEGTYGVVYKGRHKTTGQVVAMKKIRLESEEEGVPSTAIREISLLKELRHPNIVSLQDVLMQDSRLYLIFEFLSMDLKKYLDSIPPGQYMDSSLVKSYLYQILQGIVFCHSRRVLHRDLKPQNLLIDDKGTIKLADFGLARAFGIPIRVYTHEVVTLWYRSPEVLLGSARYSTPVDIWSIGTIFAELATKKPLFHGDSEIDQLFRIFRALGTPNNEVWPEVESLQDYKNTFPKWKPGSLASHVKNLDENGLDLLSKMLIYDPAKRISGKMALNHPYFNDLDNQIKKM

[14] = target: NT-3 growth factor receptor (Homo sapiens, UniProt Q16288); assay: Inhibition of TRKC (unknown origin)
[15] = target: cAMP-dependent protein kinase (PKA) (Homo sapiens, UniProt P22694+P17612+P22612); assay: Inhibition of PKA (unknown origin); format: protein assay
[16] = target: RAF proto-oncogene serine/threonine-protein kinase (Homo sapiens, UniProt P04049); assay: Inhibition of RAF1 (unknown origin)
[17] = target: ALK tyrosine kinase receptor (Homo sapiens, UniProt Q9UM73); assay: Inhibition of ALK (unknown origin)
[18] = target: BDNF/NT-3 growth factors receptor (Homo sapiens, UniProt Q16620); assay: Inhibition of TRKB (unknown origin)
[19] = target: Protein kinase C alpha type (Homo sapiens, UniProt P17252); assay: Inhibition of PKCalpha (unknown origin)
[20] = target: Epidermal growth factor receptor (Homo sapiens, UniProt P00533); assay: Inhibition of EGFR (unknown origin)
[21] = target: Serine/threonine-protein kinase Chk1 (Homo sapiens, UniProt O14757); assay: Inhibition of CHK1 (unknown origin)

Chain of Tyrosine-protein kinase Lck (P06239 whole entry): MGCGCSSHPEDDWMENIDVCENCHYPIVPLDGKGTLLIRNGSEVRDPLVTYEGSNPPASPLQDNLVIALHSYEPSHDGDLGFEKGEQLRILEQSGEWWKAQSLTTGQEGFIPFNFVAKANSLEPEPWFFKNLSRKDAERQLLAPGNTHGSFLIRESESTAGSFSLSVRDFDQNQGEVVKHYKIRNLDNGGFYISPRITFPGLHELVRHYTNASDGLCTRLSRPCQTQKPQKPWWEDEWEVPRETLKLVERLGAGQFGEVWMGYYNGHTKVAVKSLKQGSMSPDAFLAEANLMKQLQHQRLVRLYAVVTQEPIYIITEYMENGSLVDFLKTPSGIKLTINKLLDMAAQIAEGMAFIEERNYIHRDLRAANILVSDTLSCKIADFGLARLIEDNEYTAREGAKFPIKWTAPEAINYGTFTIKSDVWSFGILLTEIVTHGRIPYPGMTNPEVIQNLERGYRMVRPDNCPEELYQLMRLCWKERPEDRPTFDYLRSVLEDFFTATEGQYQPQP
Chain of Vascular endothelial growth factor receptor 2 (P35968 whole entry): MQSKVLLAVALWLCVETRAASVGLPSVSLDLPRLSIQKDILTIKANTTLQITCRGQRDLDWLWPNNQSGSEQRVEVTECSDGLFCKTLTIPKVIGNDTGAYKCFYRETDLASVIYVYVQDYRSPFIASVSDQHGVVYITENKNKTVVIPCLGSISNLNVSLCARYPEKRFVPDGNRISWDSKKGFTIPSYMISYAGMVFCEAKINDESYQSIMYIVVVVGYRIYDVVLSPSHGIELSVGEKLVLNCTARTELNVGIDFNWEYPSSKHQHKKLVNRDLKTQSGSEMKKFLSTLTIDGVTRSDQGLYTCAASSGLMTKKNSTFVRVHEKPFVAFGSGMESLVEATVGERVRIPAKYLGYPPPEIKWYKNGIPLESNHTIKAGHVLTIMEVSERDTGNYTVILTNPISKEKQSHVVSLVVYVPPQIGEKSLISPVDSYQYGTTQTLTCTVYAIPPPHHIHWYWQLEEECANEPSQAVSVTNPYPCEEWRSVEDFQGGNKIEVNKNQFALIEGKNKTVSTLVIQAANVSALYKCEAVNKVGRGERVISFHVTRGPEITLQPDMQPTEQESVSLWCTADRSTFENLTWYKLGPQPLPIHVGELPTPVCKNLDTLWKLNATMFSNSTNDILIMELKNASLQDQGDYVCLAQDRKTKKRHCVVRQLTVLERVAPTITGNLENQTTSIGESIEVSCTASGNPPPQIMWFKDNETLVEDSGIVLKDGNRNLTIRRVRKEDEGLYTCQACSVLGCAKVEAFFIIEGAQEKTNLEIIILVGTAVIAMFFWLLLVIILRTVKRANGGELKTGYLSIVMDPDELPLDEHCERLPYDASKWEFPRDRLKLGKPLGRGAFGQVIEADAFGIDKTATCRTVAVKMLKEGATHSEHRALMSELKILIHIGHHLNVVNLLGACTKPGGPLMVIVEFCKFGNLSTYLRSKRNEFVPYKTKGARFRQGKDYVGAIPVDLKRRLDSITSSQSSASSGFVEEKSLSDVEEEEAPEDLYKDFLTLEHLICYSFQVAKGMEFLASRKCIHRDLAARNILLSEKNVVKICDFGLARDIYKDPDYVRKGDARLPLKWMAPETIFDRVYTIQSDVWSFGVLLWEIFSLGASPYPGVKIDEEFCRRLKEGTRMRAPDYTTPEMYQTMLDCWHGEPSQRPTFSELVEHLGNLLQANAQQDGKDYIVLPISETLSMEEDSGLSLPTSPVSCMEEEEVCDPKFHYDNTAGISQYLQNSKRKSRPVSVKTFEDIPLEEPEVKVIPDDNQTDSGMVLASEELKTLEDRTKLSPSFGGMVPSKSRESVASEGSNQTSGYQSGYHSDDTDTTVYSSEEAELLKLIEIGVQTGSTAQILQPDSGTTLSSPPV

| SMILES | IC50 [1] | IC50 [2] | fold induction at 1 h, 1 µM [3] | IC50 [4] | IC50 [5] | other results |
| --- | --- | --- | --- | --- | --- | --- |
| CC(C)(C)NC(=O)c1cc(C#Cc2ccc3c4c(oc3c2)C(C)(C)c2cc(NS(C)(=O)=O)ccc2C4=O)nc(C(F)(F)F)c1 | 130 nM | > 1000 nM | 2.5 | 55 nM | 2.6 nM | – |
| CC1(C)c2cc(OCCN3CCOCC3)ccc2C(=O)c2c1oc1cc(C#Cc3cc(OCC4CC4)ccn3)ccc21 | – | 757 nM | 6.5 | – | 4.5 nM | IC50 [6]: > 10000 nM; IC50 [7]: > 10000 nM; IC50 [8]: > 10000 nM; IC50 [9]: > 10000 nM; IC50 [10]: > 10000 nM; IC50 [11]: 2000 nM; IC50 [12]: > 10000 nM; IC50 [13]: > 10000 nM; IC50 [14]: 6.9 nM; IC50 [15]: > 10000 nM; IC50 [16]: > 10000 nM; IC50 [17]: 2800 nM; IC50 [18]: 8.1 nM; IC50 [19]: > 10000 nM; IC50 [20]: > 10000 nM; IC50 [21]: > 10000 nM |
| CC(C)(C)NC(=O)c1cc(Cl)nc(C#Cc2ccc3c4c(oc3c2)C(C)(C)c2cc(NS(C)(=O)=O)ccc2C4=O)c1 | 180 nM | > 1000 nM | 3 | 48 nM | 2.2 nM | – |
| CC1(C)c2cc(NS(C)(=O)=O)ccc2C(=O)c2c1oc1cc(C#Cc3cc(C(=O)NC4CC4)ccn3)ccc21 | 145 nM | > 1000 nM | 2.8 | 83 nM | 2.4 nM | – |
| Cc1c(C(=O)NC(C)(C)C)ccnc1C#Cc1ccc2c3c(oc2c1)C(C)(C)c1cc(NS(C)(=O)=O)ccc1C3=O | 300 nM | > 1000 nM | 4.1 | 45 nM | 3.8 nM | – |
| CC1(C)c2cc(NS(C)(=O)=O)ccc2C(=O)c2c1oc1cc(C#Cc3cc(OCC(F)(F)F)ccn3)ccc21 | 159 nM | 997 nM | 3.4 | 67 nM | 2.2 nM | – |
